Laboratory results: patent US20220193042A1, “NITAZOXANIDE AND THIAZOLIDES FOR USE IN THE TREATMENT OF DISEASES ASSOCIATED WITH OXIDATIVE STRESS” (GENFIT, priority 2019, published 2022)

Columns and labels:
Nrf2 target genes = assay: Enrichment of Nrf2 target genes in hepatic transcriptome (RNAseq), CDAA/c NASH model; assay type: in vivo, C57Bl/6J mice; settings: NTZ+CDAA/c vs CDAA/c; Nrf2 target genes are 1.3% of whole identified transcriptome
Protocol: In the current study, the preventive effects of NTZ 100 mg/kg/day were assessed in a murine model. 6 week-old male C57Bl/6J mice were fed a control (CSAA) diet (n=8), CDAA+1% cholesterol diet (n=12), or CDAA+1% cholesterol diet supplemented with NTZ 100 mg/kg/day (n=8) for 12 weeks. The food was purchased from Ssniff® company (Soest, Germany). Nitazoxanide (Interchim, Ref #RQ550) was incorporated by Ssniff® into CDAA+1% chol diet in powder form to the required dose.
The body weight and the food intake were monitored twice per week. On the last day of treatment, mice were sacrificed after a 6 h fasting period. The liver was rapidly excised for transcriptomic and histological studies.
Upon measurement of RNA samples concentration by nanodrop, the quality was assessed using bioanalyser. […]
Reads were cleaned using Trimmomatic v.0.36 with the following parameters: SLIDINGWINDOW:5:20 LEADING:30 TRAILING:30 MINLEN:60.Then reads were aligned on the genome reference (Mus musculus GRCm38.90) with rnacocktail using hisat2 v.2.1.0 as aligner with default parameters. […]
To identify differentially expressed genes (DE genes), we used R (version 3.4.3) and the DESEa2 library (v. 1.18.1). […] Briefly, the count matrix produced by FeatureCounts was analyzed by the DESeqDataSetFromMatrixO function followed by the DEseq( ) function from the DESeq2 library. […]

Nrf2-ARE signaling = assay: ARE Reporter - HepG2 cell line luciferase assay; assay type: cell-based, human; settings: 1 μM TZ, 18 h exposure, vs vehicle
Protocol: ARE Reporter—Hep G2 cells(BPS Bioscience, Inc., San Diego cat #60513) were cultured following manufacturer's instructions. After thawing (BPS thaw medium 1, cat #60187), cells were cultured in growth-medium (BPS growth medium 1K, cat #79533) and subsequently plated at a density of 40 000 cells par well in a 96-well microplate in 45 μl of assay medium (BPS thaw medium). TZ (Interchim; cat #RP253) & DL-Sulforaphane (Sigma; cat #S4441) were dissolved in DMSO and diluted into assay medium. 5 μl of 10× dilution were added on cells to reach a final concentration of 1 μM and 3 μM for TZ and DL-Sulforaphane (DL-Sulfo) respectively. After 18 h exposure, luciferase activity was determined. 50 μl of One-Step Luciferase assay system (BPS cat #60690) were added per well and after −15 min of rocking at room temperature, luminescence was measured using a luminometer.

Hep G2 cells = assay: Intracellular GSH detection (ThiolTracker Violet) in menadione-stressed Hep G2 cells; assay type: cell-based, human; settings: 1 μM TZ preincubated 1 hour, then 100 μM menadione for 2 hours
Protocol: Tizoxanide (Interchim; cat #RP253) was dissolved in DMF (Sigma; cat #227056). Menadione (Sigma; cat #M2518) and N-Acetylcysteine were dissolved (Sigma; cat #A9165) in water. Hep G2 cells (ECACC) were plated at a density of 20 000 cells par well into a 96-well microplate in 100 μl of DMEM (Gibco; cat #41965-039) supplemented with 1% P/S (Gibco; cat #15140-122), 1% glutamine(Gibco; cat #25030-024).The complete medium contained 10% SVF (Gibco; cat #10270-106). The next day, culture medium was removed and replaced by 100 μL of DMEM (Gibco; cat #31053-028) without Red Phenol and SVF but supplemented with 1% P/S (Gibco; cat #15140-122), 1% glutamine(Gibco; cat #25030-024). The serum deprived HepG2 were preincubated for 1 hour with TZ or N-Acetylcysteine (NAC) then exposed to Menadione (MND) for 2 hours. Compounds were dissolved in their respective vehicles a mentioned above and diluted in the deprived culture medium. […] The cellular level of reduced glutathione was subsequently monitored using the ThiolTracker Violet dye (Invitrogen, cat #T10096). Briefly, cells were washed two times with DPBS (Invitrogen, Cat #14287-080) then incubated for 30 min at 37° with 100 μl of prewarmed ThiolTracker Violet dye solution prepared in DPBS according the supplier 's instructions and fluorescence was measured (Ex:404 nm, Em: 526 nm)

Row | Structure (SMILES) | proportion of Nrf2-regulated genes among all differentially expressed genes (Nrf2 target genes) | ARE-mediated luciferase activity (ARE-mediated transcription) (Nrf2-ARE signaling) | prevention of MND-induced reduction of cellular GSH (Hep G2 cells)
1 | CC(=O)Oc1ccccc1C(=O)Nc1ncc([N+](=O)[O-])s1 [NTZ, [2-[(5-nitro-1,3-thiazol-2-yl)carbamoyl]phenyl]ethanoate] | more than 8% | – | –
2 | O=C(Nc1ncc([N+](=O)[O-])s1)c1ccccc1O [TZ, Tizoxanide] | – | significant increase | totally prevented
